From ChEMBL document CHEMBL1201862, “PubChem BioAssay data set” (2004)
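Interpolation was linear, between the two tested concentrations surrounding the appropriate level; five concentrations were tested over 48 hours in 96-well plates. At the GI50, growth is halved.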 Activity calls are given as the source filed them. Rule as the data show it: active = GI50 up to about 1.1 µM and inactive = higher.

Columns and labels:
Test in all cases: NCI tumour cell line growth inhibition, 48 h
[1] = tested on: ACHN
[2] = tested on: UACC-62
[3] = tested on: MOLT-4
[4] = tested on: OVCAR-3
[5] = tested on: Malme-3M
[6] = tested on: OVCAR-5
[7] = tested on: MDA-MB-435
[8] = tested on: HCC 2998
[9] = tested on: HOP-92
[10] = tested on: SK-MEL-5
[11] = tested on: NCI/ADR-RES
[12] = tested on: SK-MEL-2
[13] = tested on: NCI-H226
[14] = tested on: NCI-H23
[15] = tested on: SNB-19
[16] = tested on: SR
[17] = tested on: TK-10
[18] = tested on: SNB-75
[19] = tested on: OVCAR-8
[20] = tested on: SK-OV-3
[21] = tested on: CAKI-1
[22] = tested on: COLO 205
[23] = tested on: MDA-N
[24] = tested on: IGROV-1
[25] = tested on: PC-3
[26] = tested on: SW-620
[27] = tested on: RPMI-8226
[28] = tested on: EKVX
[29] = tested on: SF-268
[30] = tested on: A549
[31] = tested on: CCRF-CEM
[32] = tested on: K562
[33] = tested on: SF-539
[34] = tested on: 786-0
[35] = tested on: SK-MEL-28
[36] = tested on: RXF 393
[37] = tested on: NCI-H460
[38] = tested on: MDA-MB-231
[39] = tested on: LOX IMVI
[40] = tested on: T47D
[41] = tested on: DU-145
[42] = tested on: SN12C
[43] = tested on: U-251
[44] = tested on: NCI-H522
[45] = tested on: M14
[46] = tested on: OVCAR-4
[47] = tested on: MCF7
[48] = tested on: HOP-62
[49] = tested on: Hs-578T
[50] = tested on: KM12
[51] = tested on: HT-29
[52] = tested on: UO-31
[53] = tested on: UACC-257
[54] = tested on: BT-549
[55] = tested on: HCT-15
[56] = tested on: A498
[57] = tested on: HCT-116
[58] = tested on: SF-295
[59] = tested on: HL-60

With `O=C(Nc1ccc2ncccc2c1)Nc1ccc2ncccc2c1` the GI50 [1] was > 100 µM (inactive), the GI50 [2] was > 100 µM (inactive) and the GI50 [3] was > 100 µM (inactive). For the same compound, the GI50 [4] was > 100 µM (inactive), the GI50 [5] was > 100 µM (inactive) and the GI50 [6] was > 100 µM (inactive). For the same compound, the GI50 [7] was > 100 µM (inactive), the GI50 [8] was > 100 µM (inactive) and the GI50 [9] was > 100 µM (inactive). For the same compound, the GI50 [10] was > 100 µM (inactive), the GI50 [11] was > 100 µM (inactive) and the GI50 [12] was > 100 µM (inactive). For the same compound, the GI50 [13] was > 100 µM (inactive), the GI50 [14] was > 100 µM (inactive) and the GI50 [15] was > 100 µM (inactive). The GI50 [16] was > 100 µM (inactive), the GI50 [17] was > 100 µM (inactive) and the GI50 [18] was > 100 µM (inactive). For the same compound, the GI50 [19] was > 100 µM (inactive), the GI50 [20] was > 100 µM (inactive) and the GI50 [21] was > 100 µM (inactive). For the same compound, the GI50 [22] was > 100 µM (inactive), the GI50 [23] was > 100 µM (inactive) and the GI50 [24] was > 100 µM (inactive). The GI50 [25] was > 100 µM (inactive), the GI50 [26] was > 100 µM (inactive) and the GI50 [27] was > 100 µM (inactive). The GI50 [28] was > 100 µM (inactive), the GI50 [29] was > 100 µM (inactive) and the GI50 [30] was > 100 µM (inactive). For the same compound, the GI50 [31] was > 100 µM (inactive), the GI50 [32] was > 100 µM (inactive) and the GI50 [33] was > 100 µM (inactive). The GI50 [34] was > 100 µM (inactive), the GI50 [35] was > 100 µM (inactive) and the GI50 [36] was > 100 µM (inactive). The GI50 [37] was > 100 µM (inactive), the GI50 [38] was > 100 µM (inactive) and the GI50 [39] was > 100 µM (inactive). The GI50 [40] was > 100 µM (inactive), the GI50 [41] was > 100 µM (inactive) and the GI50 [42] was > 100 µM (inactive). The GI50 [43] was > 100 µM (inactive), the GI50 [44] was > 100 µM (inactive) and the GI50 [45] was > 100 µM (inactive). The GI50 [46] was > 100 µM (inactive), the GI50 [47] was > 100 µM (inactive) and the GI50 [48] was > 100 µM (inactive). For the same compound, the GI50 [49] was > 100 µM (inactive), the GI50 [50] was > 100 µM (inactive) and the GI50 [51] was > 100 µM (inactive). The GI50 [52] was > 100 µM (inactive), the GI50 [53] was > 100 µM (inactive) and the GI50 [54] was > 100 µM (inactive). The GI50 [55] was over 100 µM, the GI50 [56] was > 100 µM (inactive) and the GI50 [57] was > 100 µM (inactive). The GI50 [58] was > 100 µM (inactive).

`COc1ccc(-c2nc(N)c3ncn(C4OC(CO)C(O)C4O)c3n2)cc1` (stereo not drawn) was tested, and the GI50 [1] was > 100 µM (inactive), the GI50 [2] was > 100 µM (inactive) and the GI50 [3] was 70.6 µM (inactive). For the same compound, the GI50 [4] was > 100 µM (inactive), the GI50 [5] was > 100 µM (inactive) and the GI50 [6] was > 100 µM (inactive). For the same compound, the GI50 [7] was > 100 µM (inactive), the GI50 [9] was > 100 µM (inactive) and the GI50 [10] was > 100 µM (inactive). The GI50 [11] was > 100 µM (inactive), the GI50 [12] was > 100 µM (inactive) and the GI50 [13] was > 100 µM (inactive). For the same compound, the GI50 [14] was > 100 µM (inactive), the GI50 [15] was > 100 µM (inactive) and the GI50 [16] was > 100 µM (inactive). For the same compound, the GI50 [17] was > 100 µM (inactive), the GI50 [18] was > 100 µM (inactive) and the GI50 [19] was > 100 µM (inactive). The GI50 [20] was > 100 µM (inactive), the GI50 [21] was > 100 µM (inactive) and the GI50 [22] was > 100 µM (inactive). The GI50 [23] was > 100 µM (inactive), the GI50 [24] was > 100 µM (inactive) and the GI50 [25] was > 100 µM (inactive). The GI50 [26] was > 100 µM (inactive), the GI50 [27] was > 100 µM (inactive) and the GI50 [28] was > 100 µM (inactive). The GI50 [29] was > 100 µM (inactive), the GI50 [30] was > 100 µM (inactive) and the GI50 [31] was > 100 µM (inactive). The GI50 [32] was > 100 µM (inactive), the GI50 [33] was > 100 µM (inactive) and the GI50 [34] was > 100 µM (inactive). For the same compound, the GI50 [35] was > 100 µM (inactive), the GI50 [36] was > 100 µM (inactive) and the GI50 [37] was > 100 µM (inactive). For the same compound, the GI50 [38] was > 100 µM (inactive), the GI50 [39] was > 100 µM (inactive) and the GI50 [40] was > 100 µM (inactive). The GI50 [41] was > 100 µM (inactive), the GI50 [42] was > 100 µM (inactive) and the GI50 [43] was > 100 µM (inactive). For the same compound, the GI50 [44] was 62.8 µM (inactive), the GI50 [45] was > 100 µM (inactive) and the GI50 [46] was > 100 µM (inactive). For the same compound, the GI50 [59] was > 100 µM (inactive), the GI50 [47] was > 100 µM (inactive) and the GI50 [48] was > 100 µM (inactive). For the same compound, the GI50 [49] was > 100 µM (inactive), the GI50 [50] was > 100 µM (inactive) and the GI50 [51] was > 100 µM (inactive). The GI50 [53] was > 100 µM (inactive), the GI50 [54] was > 100 µM (inactive) and the GI50 [55] was over 100 µM. For the same compound, the GI50 [56] was > 100 µM (inactive), the GI50 [57] was > 100 µM (inactive) and the GI50 [58] was > 100 µM (inactive).

In the case of `CCOC(=O)N1CCN(c2c(N)nc(C)nc2O)CC1`, the GI50 [1] is reported as > 100 µM (inactive), the GI50 [3] is reported as > 100 µM (inactive) and the GI50 [4] is reported as > 100 µM (inactive). The GI50 [5] was > 100 µM (inactive), the GI50 [6] was > 100 µM (inactive) and the GI50 [7] was > 100 µM (inactive). The GI50 [8] was > 100 µM (inactive), the GI50 [9] was > 100 µM (inactive) and the GI50 [11] was > 100 µM (inactive). For the same compound, the GI50 [12] was > 100 µM (inactive), the GI50 [13] was > 100 µM (inactive) and the GI50 [14] was > 100 µM (inactive). For the same compound, the GI50 [15] was > 100 µM (inactive), the GI50 [16] was > 100 µM (inactive) and the GI50 [17] was > 100 µM (inactive). For the same compound, the GI50 [18] was > 100 µM (inactive), the GI50 [19] was > 100 µM (inactive) and the GI50 [22] was > 100 µM (inactive). For the same compound, the GI50 [23] was > 100 µM (inactive), the GI50 [25] was > 100 µM (inactive) and the GI50 [26] was > 100 µM (inactive). For the same compound, the GI50 [27] was > 100 µM (inactive), the GI50 [28] was > 100 µM (inactive) and the GI50 [29] was > 100 µM (inactive). The GI50 [30] was > 100 µM (inactive), the GI50 [31] was > 100 µM (inactive) and the GI50 [32] was > 100 µM (inactive). For the same compound, the GI50 [33] was > 100 µM (inactive), the GI50 [34] was > 100 µM (inactive) and the GI50 [35] was > 100 µM (inactive). The GI50 [37] was > 100 µM (inactive), the GI50 [38] was > 100 µM (inactive) and the GI50 [39] was > 100 µM (inactive). The GI50 [40] was > 100 µM (inactive), the GI50 [41] was > 100 µM (inactive) and the GI50 [42] was > 100 µM (inactive). For the same compound, the GI50 [43] was > 100 µM (inactive), the GI50 [44] was > 100 µM (inactive) and the GI50 [45] was > 100 µM (inactive). The GI50 [46] was > 100 µM (inactive), the GI50 [59] was > 100 µM (inactive) and the GI50 [47] was > 100 µM (inactive). For the same compound, the GI50 [48] was > 100 µM (inactive), the GI50 [49] was > 100 µM (inactive) and the GI50 [50] was > 100 µM (inactive). The GI50 [51] was > 100 µM (inactive), the GI50 [52] was > 100 µM (inactive) and the GI50 [53] was > 100 µM (inactive). For the same compound, the GI50 [54] was > 100 µM (inactive), the GI50 [55] was over 100 µM and the GI50 [56] was > 100 µM (inactive). The GI50 [57] was > 100 µM (inactive) and the GI50 [58] was > 100 µM (inactive).
